Source: patent publication US10905680B2, “Methods of treatment for cholestatic and fibrotic diseases” (Genfit, priority 2016, dated 2021)

Key:
[1] = test system: human primary hepatic stellate cells (hHSC); assay: TGFβ1-induced expression of α-SMA protein in human HSC (ELISA); type: cell-based; conditions: TGFβ1 1 ng/ml, 48 hours
Procedure: Serum-deprived HSC were preincubated for 1 hour with NTZ (A) or TZ (B) before the activation with the profibrogenic cytokine TGFβ1 (1 ng/ml). After 48 hours of incubation, the expression of α-SMA was measured by ELISA. The obtained values were transformed into percentage inhibition over TGFβ1 control. Data are presented as mean (triplicates)±standard deviation (SD). Statistical analyses were performed by one-way ANOVA followed by Bonferroni post-hoc tests, using Sigma Plot 11.0 software. [*: p<0.05; **: p<0.01; ***: p<0.001 (comparison versus TGFβ1 1 ng/mL group)]. The curve fitting and the calculation of half maximal inhibitory concentration (IC50) were performed with XLFit software 5.3.1.3. The human primary hepatic stellate cells (hHSC) (Innoprot) were cultured in STeCM medium (ScienCell cat #5301) that was supplemented with 2% fetal bovine serum (FBS, ScienCell cat #0010), 1% penicillin/streptomycin (ScienCell cat #0503) and stellate cell growth supplement (SteCGS; ScienCell cat #5352). Cell culture flasks were coated with Poly-L Lysine (Sigma cat # P4707) for a better adherence. The human primary hepatic stellate cells (hHSC) (Innoprot) were cultured under standard conditions, as described above. The cells were subsequently plated at a density of 7×10^4 cells/well into 24-well plates for gene expression studies, and at a density of 2×10^4 cells/well into 96-well plates for the measure of α-SMA by ELISA. The next day, cell culture medium was removed, and cells were washed with PBS (Invitrogen cat #14190). hHSC were deprived for 24 hours in serum-free and SteCGS-free medium. For the treatments with NTZ or TZ, the serum-deprived hHSC were preincubated for 1 hour with the compounds followed by the addition of the profibrogenic stimuli TGFβ1 (PeproTech cat #100-21, 1 ng/mL) in serum-free and SteCGS-free medium for an additional 24 or 48 hour period (the timepoint is indicated in the figure legends). […] The level of α-SMA was measured using a Sandwich ELISA. […]

[2] = test system: Normal Human Lung Fibroblasts (NHLF); assay: TGFβ1-induced expression of α-SMA protein in human lung fibroblasts (ELISA); type: cell-based; conditions: concentration of 1 μM; TGFβ1 1 ng/ml, 48 hours
Procedure: NTZ (A) or TZ (B) was added to serum-deprived lung fibroblasts (NHLF) 1 hour before the activation with TGFβ1 (1 ng/ml). After 48 hours of incubation, the expression of α-SMA was measured by ELISA. The obtained values were transformed into percentage inhibition over TGFβ1 control. Data are presented as mean (triplicates)±standard deviation (SD). Statistical analyses were performed by one-way ANOVA followed by Bonferroni post-hoc tests, using Sigma Plot 11.0 software. [*: p<0.05; **: p<0.01; ***: p<0.001 (comparison versus TGFβ1 1 ng/mL group)].
The Normal Human Lung Fibroblasts (NHLF) (Lonza) were cultured in Fibroblast Basal Medium (FBM) (Lonza cat # CC-3131) that was supplemented with FGM-2 SingleQuots™ Kit (Lonza cat # CC-3132). The complete medium contains 2% fetal bovine serum. For the activation experiments with TGFβ1, the NHLF were plated at a density of 5×10^3 cells per well in 96-well plates. The next day, cell-culture medium was removed, and cells were washed with PBS (Invitrogen cat #14190). NHLF were deprived for 24 hours in serum-free, insulin-free and rhFGF-B-free medium. […]
The level of α-SMA was measured using a Sandwich ELISA. […]

**Q.** What does the source list for O=C(Nc1ncc([N+](=O)[O-])s1)c1ccccc1O [TZ, 2-hydroxy-N-(5-nitro-2-thiazolyl)benzamide]?
**A.** IC50 ([1]; Homo sapiens, 1 h preincubation, read-out: IC50 (level of α-SMA in TGFβ-induced HSCs)): 100 to 3000 nM; level of α-SMA in TGFβ-induced HSCs [1]: profile similar to the parent drug; antifibrotic effects (α-SMA) in normal human lung fibroblasts [2]: significant antifibrotic effects
